From patent US20230286956A1 (DUKSUNG WOMEN'S UNIVERSITY INDUSTRY-ACADEMIC COOPERATION …, priority 2020, published 2023)

Columns and labels:
alpha-synuclein = assay: Alpha-synuclein aggregation (phosphorylation) inhibition, Western blotting; type: cell-based; conditions: SH-SY5Y, 10 µM compound then rotenone
Method: When rotenone is administered to nerve cells, phosphorylation, namely aggregation of alpha-synuclein occurs. Phosphorylation, aggregation of alpha-synuclein can be observed and quantified through Western blotting.
Specifically, the SH-SY5Y cell line was treated with Compound 1aaa (Compound 1, 10 µM) and then with rotenone. Thereafter, Western blotting was performed to measure the expression levels of alpha-synuclein and phosphorylated alpha-synuclein, and the results are illustrated in FIG. 6.

[1] = Single acute toxicity evaluation 1 (1000 mg/kg oral); type: in vivo, ICR mice
Method: Acute toxicity properties after single administration of the compound of the present invention were evaluated in an animal model.

SH-SY5Y cell line [2] = assay: Cell viability (MTT assay) after MPP+ or rotenone; type: cell-based; conditions: 0.5 µM compound, then MPP+ (2 mM) or rotenone (2 µM) for 24 hours
Method: Specifically, the SH-SY5Y cell line was treated with 0.5 µM of Compound 1aaa (Compound 1), 1aca (Compound 24), lace (Compound 27), 1ahe (Compound 44) or 1aje (Compound 62) and then with MPP+ (2 mM) or rotenone (2 µM) for 24 hours. Cell viability in the case of being treated with each compound is illustrated in FIGS. 4 and 5.

SH-SY5Y cell line [3] = assay: Inhibition of reactive oxygen species generation (CM-H2DCFDA) after MPP+ or rotenone; type: cell-based; conditions: 10 µM compound, then MPP+ (2 mM) or rotenone (2 µM) for 24 hours
Method: It is known that reactive oxygen species are generated by inhibition of mitochondria, activation of NOX enzyme, and the like when MPP+ or rotenone is administered to a cell line. Since the reactive oxygen species generated at this time react with the CM-H2DCFDA reagent to be fluorescent, the reactive oxygen species can be indirectly quantified.
Specifically, the SH-SY5Y cell line was treated with Compound 1aaa (Compound 1, 10 µM), apocynin (5 µM), or allopurinol (50 µM), and then with MPP+ (2 mM) or rotenone (2 µM) for 24 hours. The effect of each compound to inhibit the generation of reactive oxygen species is illustrated in FIGS. 2 and 3 as a relative percentage to that of the control group.

Nrf-2 = Nrf-2 induction, nuclear fraction Western blotting; type: cell-based; conditions: SH-SY5Y, 10 µM compound for 24 hours
Method: When oxidative stress caused by reactive oxygen species increases in cells, the synthesis of antioxidants increases in response to this. One of the transcription factors mediating this antioxidant response is Nrf-2. As the transcription factor Nrf-2 enters the nucleus and the expression of genes related to antioxidation increases, the antioxidant capacity of cells increases.
Specifically, the SH-SY5Y cell line was exposed to Compound 1aaa (Compound 1, 10 µM) for 24 hours and then the cells were taken. Thereafter, the nuclear fraction was extracted, then Western blotting was performed to analyze the amount of Nrf-2 in the nucleus, and the results are illustrated in FIG. 7.

[4] = test system: substantia nigra dopaminergic neurons; assay: Inhibition of dopaminergic nerve cell death in MPTP animal model of Parkinson's disease (tyrosine hydroxylase immunostaining); type: in vivo, C57B16/J mice; conditions: for survival rate of dopaminergic neurons, of that in the control group: 1 week before and after MPTP
Method: The dopaminergic neuronal cell protecting effect of the compound of the present invention was evaluated in an animal model of Parkinson’s disease. The animal model used was 7-week-old C57B16/J mice (23 to 25 g), to which MPTP (15 mg/kg) was administered 4 times at 1.5 hour intervals. For 1 to 2 days after administration, behavior was noticeably slowed and gradually recovered. In 1 week after MPTP administration, behavior was almost normalized to a level similar to that of normal mice.
In order to evaluate the efficacy of the compounds of the present invention, Compounds 1aaa (Compound 1), lace (Compound 27), 1ahe (Compound 44) and 1aje (Compound 62) were each administered at a dose of 5 mg/kg for 1 week, then MPTP (15 mg/kg x 4 times) was injected. These compounds were additionally administered for 1 week, and then dopamine innervation in the substantia nigra region was analyzed through immunostaining.
Specifically, selegiline, 1aaa, lace, 1ahe, 1aje, and apocynin were administered at a dose of 5 mg/kg for 7 days, then MPTP (15 mg/kg x 4 times) was administered to induce damage to dopaminergic neurons. After 7 days of additional administration of the compounds at the same dose, the animals were sacrificed. Immunostaining was performed using tyrosine hydroxylase antibody to measure the survival rate of substantia nigra dopaminergic neurons. After immunostaining, the number of surviving dopaminergic neurons was analyzed. The results are illustrated in FIG. 8.
In order to evaluate the efficacy of the compounds of the present invention, Compounds 1abv (Compound 22), 1abw (Compound 23), and 1ahs (Compound 52) were each intraperitoneally administered at a dose of 5 mg/kg for 1 week or orally administered at a dose of 50 mg/kg, then MPTP (15 mg/kg x 4 times) was injected. These compounds were additionally administered for 1 week, and then dopamine innervation in the substantia nigra region was analyzed through immunostaining. The results are illustrated in FIG. 9.
(§1) In order to evaluate the dopaminergic neuroprotective effect of the compounds of the present invention, Compounds 1aja (Compound 59) and 1abk (Compound 17) were each intraperitoneally administered at a dose of 5 mg/kg for 1 week, then MPTP (15 mg/kg x 4 times) was injected. These compounds were additionally administered for 1 week. After immunostaining using brain slices from each group, surviving dopaminergic neurons were photographed under a microscope and analyzed. The results are illustrated in FIG. 10.
as §1, with “1ajs” for “1aja”, “63), 1ajy (Compound 67),” for “59)”, “1aqj” for “1abk”, “85)” for “17)”, “11.” for “10.”

[5] = Single acute toxicity evaluation 2 (2000 mg/kg oral); type: in vivo, ICR mice
Method: Acute toxicity properties after single administration of the compounds of the present invention were evaluated in an animal model.

MPTP-administered mice = assay: Behavioral activity: beam test and challenge beam test in MPTP mice; type: in vivo; conditions: intraperitoneal 5 mg/kg
Method: In order to evaluate the behavioral activation by the compounds of the present invention, Compounds lace (Compound 27), 1ahe (Compound 44), and 1abv (Compound 22) were each intraperitoneally administered at a dose of 5 mg/kg for 1 week, then MPTP (15 mg/kg x 4 times) was injected. These compounds were additionally administered for 1 week. A beam test and a challenge beam test were conducted 1 day before and 2 days after MPTP administration, respectively. The results are illustrated in FIG. 12.
In order to evaluate the behavioral activation by the compounds of the present invention, Compounds 1ajs (Compound 63), 1ajy (Compound 67), and 1abw (Compound 23) were each intraperitoneally administered at a dose of 5 mg/kg for 1 week, then MPTP (15 mg/kg x 4 times) was injected. These compounds were additionally administered for 1 week. A beam test and a challenge beam test were conducted 2 days after MPTP administration. The results are illustrated in FIG. 13.

[6] = Evaluation 2: intraperitoneal 5 mg/kg or oral 50 mg/kg
[7] = Evaluation 1: beam test and challenge beam test
[8] = Evaluation 2: beam test, 2 days after MPTP

Structure (SMILES) | cell viability / inhibition of cell death (SH-SY5Y cell line [2]) | change in body weight ([5]; day 0) | change in body weight ([5]; day 2) | change in body weight ([5]; day 4) | change in body weight ([5]; day 8) | change in body weight ([5]; day 10) | change in body weight ([5]; day 14) | reduction of time for mice to reach the home cage compared to MPTP administration group (MPTP-administered mice; [8]) | further results
CN1C(=[Se])N(c2ccccc2)C(=O)C1=Cc1ccc(O)cc1O [Compound 1aaa] | significantly inhibit cell death |  |  |  |  |  |  |  | phosphorylation of alpha-synuclein by rotenone (alpha-synuclein): significantly reduced; autopsy report findings [1]: no specific findings; organ weight [1]: no change in organ weight; change in body weight ([1]; day 0): 100; change in body weight ([1]; day 1): 98.06; change in body weight ([1]; day 2): 101.29; change in body weight ([1]; day 3): 104.85; change in body weight ([1]; day 5): 106.47; change in body weight ([1]; day 7): 109.39; acute toxicity phenomenon ([1]; observed for 1 week): a specific acute toxicity phenomenon was not observed; inhibition of increased generation of reactive oxygen species (SH-SY5Y cell line [3]): effectively inhibits; amount of Nrf-2 in the nucleus, increase (Nrf-2): about 1.5 times
Cc1ccc(N2C(=O)C(=Cc3ccc(NCCOCCO)cc3)N(C)C2=[Se])cc1 [Compound 1abv] |  | 100 | 99.0 | 100.0 | 102.5 | 103.4 | 105.0 |  | survival rate of dopaminergic neurons, of that in the control group [4, 6]: 67.8%; reduction of time for mice to reach the home cage compared to MPTP administration group (MPTP-administered mice; [7]): ≥ 50%
Cc1ccc(N2C(=O)C(=Cc3ccc(NCCN4CCOCC4)cc3)N(C)C2=[Se])cc1 [Compound 1abw] |  |  |  |  |  |  |  | about 50% | survival rate of dopaminergic neurons, of that in the control group [4, 6]: 72.3%
CCc1ccc(N2C(=O)C(=Cc3ccc(O)cc3O)N(C)C2=[Se])cc1 [Compound 1aca] | significantly inhibit cell death |  |  |  |  |  |  |  | 
CN1C(=[Se])N(CCc2ccccc2)C(=O)C1=Cc1cc(O)cc(O)c1 [Compound 1ahe] | significantly inhibit cell death | 100 | 98.6 | 100.9 | 104.2 | 105.5 | 106.0 |  | 
CCCCCCN1C(=O)C(=Cc2cc(O)cc(O)c2)N(C)C1=[Se] [Compound 1aje] | significantly inhibit cell death |  |  |  |  |  |  |  | 
CCCCCCN1C(=O)C(=Cc2ccc(N3CCOCC3)cc2)N(C)C1=[Se] [Compound 1ajs] |  | 100 | 94.3 | 91.9 | 96.7 | 101.6 | 99.4 | about 50% | 
CCCCCCN1C(=O)C(=Cc2ccc(NCCOCCF)cc2)N(C)C1=[Se] [Compound 1ajy] |  |  |  |  |  |  |  | about 50% | survival rate of dopaminergic neurons, of that in the control group ([4]; Evaluations 3 and 4: intraperitoneal 5 mg/kg): 50.6%
CCc1ccc(N2C(=O)C(=Cc3cc(O)cc(O)c3)N(C)C2=[Se])cc1 [lace] | significantly inhibit cell death |  |  |  |  |  |  |  | survival rate of substantia nigra dopaminergic neurons, of that in the control group ([4]; Evaluation 1: 5 mg/kg for 7 days, MPTP 15 mg/kg x 4, 7 further days): 79.6%; reduction of time for mice to reach the home cage compared to MPTP administration group (MPTP-administered mice; [7]): ≥ 50%
